Columns and labels:
[1] = tested on: Human immunodeficiency virus 1; assay: microbe, parasite or virus in culture; details: Human immunodeficiency virus 1, Ba-L, HOS, 120 h
Description: Antiviral activity against CCR5-dependent HIV1 Ba-L infected in human HOS cells assessed as reduction in virus infection measured after 5 days by luciferase reporter gene assay

Cytochrome P450 2D6 = Cytochrome P450 2D6 (Homo sapiens, UniProt P10635); assay: Inhibition of CYP2D6 (unknown origin); assay type: ADME
[2] = Cmax in Sprague-Dawley rat at 10 mg/kg, iv by LC-MS/MS analysis; assay type: ADME, organism-based; design: dose 10 mg/kg, route intravenous; details: in vivo
[3] = tested on: Human immunodeficiency virus 1; assay: microbe, parasite or virus in culture; details: Human immunodeficiency virus 1, SF162, HOS, 120 h
Description: Antiviral activity against CCR5-dependent HIV1 SF162 infected in human HOS cells assessed as reduction in virus infection measured after 5 days by luciferase reporter gene assay

[4] = Half life in Sprague-Dawley rat at 10 mg/kg, iv by LC-MS/MS analysis; assay type: ADME, organism-based; details: in vivo
[5] = tested on: Human immunodeficiency virus 1; assay: microbe, parasite or virus in culture; details: Human immunodeficiency virus 1, Ba-L, PBMC, 168 h
Description: Antiviral activity against CCR5-dependent HIV1 Ba-L infected in human PBMC assessed as reduction in virus infection measured 7 days by luciferase reporter gene assay

Cytochrome P450 2C19 = Cytochrome P450 2C19 (Homo sapiens, UniProt P33261); assay: Inhibition of CYP2C19 (unknown origin); assay type: ADME
[6] = tested on: Human immunodeficiency virus 1; assay: microbe, parasite or virus in culture; details: Human immunodeficiency virus 1, KM018, PBMC, 168 h
Description: Antiviral activity against CCR5-dependent HIV1 KM018 infected in human PBMC assessed as reduction in virus infection measured after 7 days by luciferase reporter gene assay

[7] = AUC (0 to infinity) in Sprague-Dawley rat at 10 mg/kg, iv by LC-MS/MS analysis; assay type: ADME, organism-based; design: dose 10 mg/kg, time infinity, route intravenous; details: in vivo
[8] = target: Voltage-gated inwardly rectifying potassium channel KCNH2 (Homo sapiens, UniProt Q12809); assay: Inhibition of human ERG expressed in CHO cells at holding potential of -80 mV after 60 secs by patch clamp assay; assay type: cell-based
Cytochrome P450 3A4 [9] = target: T1, Cytochrome P450 3A4 (Homo sapiens, UniProt P08684); assay: Inhibition of CYP3A4 (unknown origin) using midazolam as substrate; assay type: ADME
[10] = Oral bioavailability in Sprague-Dawley rat at 20 mg/kg by LC-MS/MS analysis; assay type: ADME, organism-based; details: in vivo
[11] = Cmax in Sprague-Dawley rat at 20 mg/kg, po by LC-MS/MS analysis; assay type: ADME, organism-based; design: dose 20 mg/kg, route oral; details: in vivo
in vitro [12] = details: human, TZM-bl cells
Description: Therapeutic index, ratio of CC50 for human TZM-bl cells to EC50 for CCR5-dependent HIV1 SF162 infected in human TZM-bl cells

[13] = MRT in Sprague-Dawley rat at 20 mg/kg, po by LC-MS/MS analysis; assay type: ADME, organism-based; details: in vivo
Cytochrome P450 3A4 [14] = target: T1, Cytochrome P450 3A4; assay: Inhibition of CYP3A4 (unknown origin) using testosterone as substrate; assay type: ADME
in vitro [15] = details: human, PBMC
Description: Therapeutic index, ratio of CC50 for human PBMC to IC50 for CCR5-dependent HIV1 KM018 infected in human PBMC

in vitro [16] = details: human, PM1 cells
Description: Therapeutic index, ratio of CC50 for human PM1 cells to IC50 for CCR5-dependent HIV1 Ba-L infected in human PM1 cells

[17] = tested on: Human immunodeficiency virus 1; assay: microbe, parasite or virus in culture; details: Human immunodeficiency virus 1, SF162, TZM-bl, 48 h
Description: Antiviral activity against CCR5-dependent HIV1 SF162 infected in human TZM-bl cells assessed as reduction in virus infection measured after 48 hrs post infection by luciferase reporter gene assay

[18] = AUC (0 to infinity) in Sprague-Dawley rat at 20 mg/kg, po by LC-MS/MS analysis; assay type: ADME, organism-based; design: dose 20 mg/kg, route oral, time infinity; details: in vivo
[19] = tested on: Human immunodeficiency virus 1; assay: microbe, parasite or virus in culture; details: Human immunodeficiency virus 1, SF162, PBMC, 168 h
Description: Antiviral activity against CCR5-dependent HIV1 SF162 infected in human PBMC assessed as reduction in virus infection measured after 7 days by luciferase reporter gene assay

[20] = MRT in Sprague-Dawley rat at 10 mg/kg, iv by LC-MS/MS analysis; assay type: ADME, organism-based; details: in vivo
in vitro [21] = details: human, PBMC; remark: listed apart in the source
Description: Therapeutic index, ratio of CC50 for human PBMC to IC50 for CCR5-dependent HIV1 SF162 infected in human PBMC cells

[22] = Tmax in Sprague-Dawley rat at 10 mg/kg, iv by LC-MS/MS analysis; assay type: ADME, organism-based; details: in vivo
in vitro [23] = details: human, HOS cells
Description: Therapeutic index, ratio of CC50 for human HOS cells to IC50 for CCR5-dependent HIV1 Ba-L infected in human HOS cells

in vitro [24] = details: human, PBMC; remark: listed apart in the source
Description: Therapeutic index, ratio of CC50 for human PBMC to IC50 for CCR5-dependent HIV1 Ba-L infected in human PBMC

[25] = Cytotoxicity against human TZM-bl cells after 48 hrs by MTT assay; assay type: cell-based
[26] = Half life in Sprague-Dawley rat at 20 mg/kg, po by LC-MS/MS analysis; assay type: ADME, organism-based; details: in vivo
[27] = target: C-C chemokine receptor type 5 (Homo sapiens, UniProt P51681); assay: Antagonist activity at CCR5 (unknown origin) expressed in HEK293 cells co-expressing Galpha16 assessed as inhibition of RANTES-induced calcium flux preincubated for 10 mins followed by RANTES addition by fluo-4AM-based fluorescence assay; assay type: functional, cell-based
Cytochrome P450 1A2 = target: T2, Cytochrome P450 1A2 (Homo sapiens, UniProt P05177); assay: Inhibition of CYP1A2 (unknown origin); assay type: ADME
T2 sequence (P05177 whole entry): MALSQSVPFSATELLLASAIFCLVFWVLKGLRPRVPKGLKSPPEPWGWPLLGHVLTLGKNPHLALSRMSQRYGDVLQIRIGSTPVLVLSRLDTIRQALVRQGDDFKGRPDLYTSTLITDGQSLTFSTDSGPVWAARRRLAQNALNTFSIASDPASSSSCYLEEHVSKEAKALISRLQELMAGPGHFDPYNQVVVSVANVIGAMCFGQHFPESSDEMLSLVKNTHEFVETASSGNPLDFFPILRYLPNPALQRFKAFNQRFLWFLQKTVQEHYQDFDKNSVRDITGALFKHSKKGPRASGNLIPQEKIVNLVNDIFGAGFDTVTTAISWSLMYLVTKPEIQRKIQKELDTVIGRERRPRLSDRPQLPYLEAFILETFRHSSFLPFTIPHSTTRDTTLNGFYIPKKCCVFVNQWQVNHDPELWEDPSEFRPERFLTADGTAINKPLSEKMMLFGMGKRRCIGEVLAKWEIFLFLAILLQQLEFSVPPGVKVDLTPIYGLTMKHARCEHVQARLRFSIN

in vitro [28] = details: human, HOS cells; remark: listed apart in the source
Description: Therapeutic index, ratio of CC50 for human HOS cells to IC50 for CCR5-dependent HIV1 SF162 infected in human HOS cells

[29] = tested on: Human immunodeficiency virus 1; assay: microbe, parasite or virus in culture; details: Human immunodeficiency virus 1, Ba-L, PM1, 120 h
Description: Antiviral activity against CCR5-dependent HIV1 Ba-L infected in human PM1 cells assessed as reduction in virus infection measured after 5 days by luciferase reporter gene assay

[30] = Clearance in Sprague-Dawley rat at 10 mg/kg, iv by LC-MS/MS analysis; assay type: ADME, organism-based; details: in vivo
[31] = Tmax in Sprague-Dawley rat at 20 mg/kg, po by LC-MS/MS analysis; assay type: ADME, organism-based; details: in vivo
Cytochrome P450 2C9 = Cytochrome P450 2C9 (Homo sapiens, UniProt P11712); assay: Inhibition of CYP2C9 (unknown origin); assay type: ADME
Cytochrome P450 2C9, sequence (P11712 whole entry): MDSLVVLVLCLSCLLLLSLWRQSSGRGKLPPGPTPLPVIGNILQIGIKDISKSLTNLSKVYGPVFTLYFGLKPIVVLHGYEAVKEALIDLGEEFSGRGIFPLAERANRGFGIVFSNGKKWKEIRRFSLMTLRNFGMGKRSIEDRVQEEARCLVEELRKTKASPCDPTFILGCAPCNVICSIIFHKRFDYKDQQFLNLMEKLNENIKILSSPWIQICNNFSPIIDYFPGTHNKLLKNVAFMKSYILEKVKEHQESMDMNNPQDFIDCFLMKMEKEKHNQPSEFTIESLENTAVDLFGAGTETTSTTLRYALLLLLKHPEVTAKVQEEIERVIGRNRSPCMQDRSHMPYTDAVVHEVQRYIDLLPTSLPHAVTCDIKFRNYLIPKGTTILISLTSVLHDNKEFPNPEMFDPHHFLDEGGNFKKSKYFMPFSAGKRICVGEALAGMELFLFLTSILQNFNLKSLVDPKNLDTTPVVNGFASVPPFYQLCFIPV

T1 sequence (P08684 whole entry): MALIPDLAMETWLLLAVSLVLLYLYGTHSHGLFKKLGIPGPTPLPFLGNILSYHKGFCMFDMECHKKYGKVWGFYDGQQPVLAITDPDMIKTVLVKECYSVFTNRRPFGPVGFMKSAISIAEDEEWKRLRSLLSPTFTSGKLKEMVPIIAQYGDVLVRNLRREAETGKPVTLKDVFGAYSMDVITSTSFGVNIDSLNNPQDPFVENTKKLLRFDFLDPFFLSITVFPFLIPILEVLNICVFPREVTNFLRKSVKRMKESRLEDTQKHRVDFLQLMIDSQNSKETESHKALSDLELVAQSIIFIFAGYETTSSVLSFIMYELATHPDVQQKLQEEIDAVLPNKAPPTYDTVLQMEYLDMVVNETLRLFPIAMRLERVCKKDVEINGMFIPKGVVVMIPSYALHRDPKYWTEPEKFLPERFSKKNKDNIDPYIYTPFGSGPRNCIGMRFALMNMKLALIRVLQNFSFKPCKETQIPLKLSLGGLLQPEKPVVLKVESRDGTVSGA
C-C chemokine receptor type 5, sequence (P51681 whole entry): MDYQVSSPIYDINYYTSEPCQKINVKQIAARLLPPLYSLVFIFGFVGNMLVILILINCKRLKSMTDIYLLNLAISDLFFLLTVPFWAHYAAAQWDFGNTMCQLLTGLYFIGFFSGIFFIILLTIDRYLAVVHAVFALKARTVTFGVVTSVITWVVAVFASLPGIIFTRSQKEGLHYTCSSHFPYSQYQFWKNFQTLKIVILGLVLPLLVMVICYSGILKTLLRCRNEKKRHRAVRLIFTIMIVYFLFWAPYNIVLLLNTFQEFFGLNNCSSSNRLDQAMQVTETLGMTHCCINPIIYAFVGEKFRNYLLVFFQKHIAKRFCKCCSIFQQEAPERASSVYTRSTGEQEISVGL
Voltage-gated inwardly rectifying potassium channel KCNH2, sequence (Q12809 whole entry): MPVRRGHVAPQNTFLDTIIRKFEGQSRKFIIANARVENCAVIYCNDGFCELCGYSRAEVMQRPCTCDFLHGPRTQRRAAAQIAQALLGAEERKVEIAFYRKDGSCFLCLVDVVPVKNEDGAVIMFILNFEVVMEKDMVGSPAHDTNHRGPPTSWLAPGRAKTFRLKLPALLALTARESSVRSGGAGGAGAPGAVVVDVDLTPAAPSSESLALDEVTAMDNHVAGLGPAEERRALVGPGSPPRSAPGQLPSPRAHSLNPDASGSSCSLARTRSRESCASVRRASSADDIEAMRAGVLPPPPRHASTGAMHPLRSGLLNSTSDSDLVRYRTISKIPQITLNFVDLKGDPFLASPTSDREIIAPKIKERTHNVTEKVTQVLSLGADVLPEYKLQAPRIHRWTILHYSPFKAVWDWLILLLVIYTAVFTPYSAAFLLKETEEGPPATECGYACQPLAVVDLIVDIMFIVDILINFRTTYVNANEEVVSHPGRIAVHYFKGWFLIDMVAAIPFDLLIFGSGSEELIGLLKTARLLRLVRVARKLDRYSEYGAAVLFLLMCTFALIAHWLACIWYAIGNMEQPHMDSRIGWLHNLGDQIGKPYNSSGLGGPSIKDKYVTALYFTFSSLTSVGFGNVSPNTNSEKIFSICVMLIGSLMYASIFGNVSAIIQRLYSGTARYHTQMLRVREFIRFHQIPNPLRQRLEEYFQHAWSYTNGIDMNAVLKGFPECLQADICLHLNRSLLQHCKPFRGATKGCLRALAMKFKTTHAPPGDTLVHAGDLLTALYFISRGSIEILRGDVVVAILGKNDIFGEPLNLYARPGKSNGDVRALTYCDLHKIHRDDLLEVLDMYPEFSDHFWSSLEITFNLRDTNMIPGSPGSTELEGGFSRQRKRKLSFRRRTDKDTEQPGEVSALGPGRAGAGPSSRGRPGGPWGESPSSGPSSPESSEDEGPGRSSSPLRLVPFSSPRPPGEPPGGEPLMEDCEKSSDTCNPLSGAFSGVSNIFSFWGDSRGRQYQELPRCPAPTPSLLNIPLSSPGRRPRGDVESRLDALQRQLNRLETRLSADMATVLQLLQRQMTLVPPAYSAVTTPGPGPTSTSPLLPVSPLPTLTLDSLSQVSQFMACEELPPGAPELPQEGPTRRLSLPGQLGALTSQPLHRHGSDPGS
Cytochrome P450 2C19, sequence (P33261 whole entry): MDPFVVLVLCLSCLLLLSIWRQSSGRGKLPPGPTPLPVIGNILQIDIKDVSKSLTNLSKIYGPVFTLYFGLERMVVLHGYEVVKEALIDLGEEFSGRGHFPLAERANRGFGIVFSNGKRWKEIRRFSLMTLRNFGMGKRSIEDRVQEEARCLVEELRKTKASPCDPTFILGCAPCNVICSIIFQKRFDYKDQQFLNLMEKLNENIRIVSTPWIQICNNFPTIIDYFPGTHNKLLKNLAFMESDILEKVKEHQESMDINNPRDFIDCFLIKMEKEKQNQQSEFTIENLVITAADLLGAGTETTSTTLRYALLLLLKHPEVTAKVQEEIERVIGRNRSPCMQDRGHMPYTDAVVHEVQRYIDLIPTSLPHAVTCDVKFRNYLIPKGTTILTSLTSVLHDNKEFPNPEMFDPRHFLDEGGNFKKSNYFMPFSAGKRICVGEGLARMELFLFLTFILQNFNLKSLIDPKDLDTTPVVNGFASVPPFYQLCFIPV
Cytochrome P450 2D6, sequence (P10635 whole entry): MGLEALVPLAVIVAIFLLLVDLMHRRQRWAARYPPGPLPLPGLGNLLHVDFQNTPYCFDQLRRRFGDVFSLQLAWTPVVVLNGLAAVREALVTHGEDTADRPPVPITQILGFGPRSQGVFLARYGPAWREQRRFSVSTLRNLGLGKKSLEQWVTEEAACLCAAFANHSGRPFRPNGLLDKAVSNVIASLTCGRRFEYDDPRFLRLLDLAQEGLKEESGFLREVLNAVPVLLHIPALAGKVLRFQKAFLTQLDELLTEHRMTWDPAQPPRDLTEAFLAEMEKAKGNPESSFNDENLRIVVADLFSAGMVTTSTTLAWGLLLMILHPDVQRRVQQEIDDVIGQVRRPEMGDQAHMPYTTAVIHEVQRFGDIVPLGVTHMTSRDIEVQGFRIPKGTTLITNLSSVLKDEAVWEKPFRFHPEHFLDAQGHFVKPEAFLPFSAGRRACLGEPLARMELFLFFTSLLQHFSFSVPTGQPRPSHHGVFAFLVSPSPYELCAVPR

Row | Compound | IC50 [1] | IC50 (Cytochrome P450 2D6) | Cmax [2] | IC50 [3] | half-life [4] | IC50 [5] | IC50 (Cytochrome P450 2C19) | IC50 [6] | AUC(0-inf) [7] | IC50 [8] | IC50 (Cytochrome P450 3A4 [9]) | bioavailability [10] | Cmax [11] | selectivity ratio (in vitro [12]) | MRT [13] | IC50 (Cytochrome P450 3A4 [14]) | selectivity ratio (in vitro [15]) | selectivity ratio (in vitro [16]) | IC50 [17] | AUC(0-inf) [18] | also measured
1 | Cc1nnc(C(C)C)n1[C@@H]1C[C@H]2CC[C@@H](C1)N2CC[C@H](NC(=O)C1CCC(F)(F)CC1)c1cccs1 | 3.6 nM | > 25000 nM | 6840 ng/mL | 13.1 nM | 0.77 h | 28.5 nM | > 25000 nM | 4.8 nM | 7050 ng·h/mL | 3500 nM | > 25000 nM | 7.8% | 266 ng/mL | > 55000 | 3.3 h | > 25000 nM | 56000 | 99000 | 3.6 nM | 1110 ng·h/mL | IC50 [19]: 2.9 nM; MRT [20]: 0.7 h; selectivity ratio (in vitro [21]): 92000; Tmax [22]: 0.25 h; selectivity ratio (in vitro [23]): 100000; selectivity ratio (in vitro [24]): 9400; CC50 at 48 h [25]: > 200000 nM; half-life [26]: 2.1 h; IC50 [27]: 9.1 nM; IC50 (Cytochrome P450 1A2): > 25000 nM; selectivity ratio (in vitro [28]): 28000; IC50 [29]: 6.2 nM; clearance [30]: 23.7 mL/min/kg; Tmax [31]: 4 h; IC50 (Cytochrome P450 2C9): > 25000 nM
2 | Cc1ccc([C@H](CCN2[C@@H]3CC[C@H]2C[C@H](n2c(C)nnc2C(C)C)C3)NC(=O)C2CCC(F)(F)CC2)s1 | 11.4 nM | > 25000 nM | 1690 ng/mL | 18.8 nM | 1.6 h | 240 nM | > 25000 nM | 126 nM | 2330 ng·h/mL | 3380 nM | 10900 nM | 40.1% | 580 ng/mL | > 17000 | 4.8 h | 23400 nM | > 1600 | > 13000 | 11.5 nM | 1870 ng·h/mL | IC50 [19]: 6.7 nM; MRT [20]: 2.3 h; selectivity ratio (in vitro [21]): > 29000; Tmax [22]: 0.25 h; selectivity ratio (in vitro [23]): > 18000; selectivity ratio (in vitro [24]): > 833; CC50 at 48 h [25]: > 200000 nM; half-life [26]: 32.8 h; IC50 [27]: 2.8 nM; IC50 (Cytochrome P450 1A2): > 25000 nM; selectivity ratio (in vitro [28]): > 11000; IC50 [29]: 14.9 nM; clearance [30]: 71.7 mL/min/kg; Tmax [31]: 2 h; IC50 (Cytochrome P450 2C9): > 25000 nM

— ChEMBL document CHEMBL4229569, “Structure-Based Design of 1-Heteroaryl-1,3-propanediamine Derivatives as a Novel Series of CC-Chemokine Receptor 5 Antagonists” (J Med Chem, 2018)
